Laboratory results: ChEMBL document CHEMBL1201862, “PubChem BioAssay data set” (2004)
Active and inactive are the calls of the source.

Assays:
Type in all cases: functional
[1] = biological target: Calcium/calmodulin-dependent protein kinase type 1 (Homo sapiens, UniProt Q14012)
[2] = biological target: Mitogen-activated protein kinase 9 (Homo sapiens, UniProt P45984);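 further: value from a kinome panel profiling assay, MAPK9 panel entry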
[3] = biological target: Serine/threonine-protein kinase PLK3 (Homo sapiens, UniProt Q9H4B4)
[4] = biological target: T1, Testis-specific serine/threonine-protein kinase 2 (Homo sapiens, UniProt Q96PF2);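 further: part of the Navigating the Kinome panel, target entry STK22B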
T1 sequence (Q96PF2 whole entry): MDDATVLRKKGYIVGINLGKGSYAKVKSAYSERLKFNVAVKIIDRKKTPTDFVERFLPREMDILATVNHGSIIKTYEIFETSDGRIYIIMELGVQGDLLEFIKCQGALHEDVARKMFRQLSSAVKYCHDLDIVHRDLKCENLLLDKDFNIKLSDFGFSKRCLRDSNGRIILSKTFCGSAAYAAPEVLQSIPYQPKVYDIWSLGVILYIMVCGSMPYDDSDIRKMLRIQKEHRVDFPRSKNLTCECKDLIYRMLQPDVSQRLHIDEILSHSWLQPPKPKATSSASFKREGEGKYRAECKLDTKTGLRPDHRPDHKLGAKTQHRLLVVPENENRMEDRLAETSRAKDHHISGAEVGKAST

[5] = biological target: Tyrosine-protein kinase Srms (Homo sapiens, UniProt Q9H3Y6);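 further: SRMS measured as one member of a kinome-wide kinase profiling panel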
[6] = biological target: Receptor tyrosine-protein kinase erbB-2 (Homo sapiens, UniProt P04626); test: Navigating the Kinome. Panel member name: ERBB2
[7] = biological target: SRSF protein kinase 1 (Homo sapiens, UniProt Q96SB4);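 further: measured as one member of a kinome-wide kinase profiling panel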
[8] = biological target: Fibroblast growth factor receptor 3 (Homo sapiens, UniProt P22607)
[9] = biological target: Tyrosine-protein kinase Fyn (Homo sapiens, UniProt P06241)
[10] = biological target: Serine/threonine-protein kinase DCLK1 (Homo sapiens, UniProt O15075);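 further: affinity for DCLK1 (listed as DCAMKL1) measured as one member of a kinome-wide kinase profiling panel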
[11] = biological target: Casein kinase I isoform alpha (Homo sapiens, UniProt P48729)
[12] = biological target: T2, Tyrosine-protein kinase JAK3 (Homo sapiens, UniProt P52333)
T2 sequence (P52333 whole entry): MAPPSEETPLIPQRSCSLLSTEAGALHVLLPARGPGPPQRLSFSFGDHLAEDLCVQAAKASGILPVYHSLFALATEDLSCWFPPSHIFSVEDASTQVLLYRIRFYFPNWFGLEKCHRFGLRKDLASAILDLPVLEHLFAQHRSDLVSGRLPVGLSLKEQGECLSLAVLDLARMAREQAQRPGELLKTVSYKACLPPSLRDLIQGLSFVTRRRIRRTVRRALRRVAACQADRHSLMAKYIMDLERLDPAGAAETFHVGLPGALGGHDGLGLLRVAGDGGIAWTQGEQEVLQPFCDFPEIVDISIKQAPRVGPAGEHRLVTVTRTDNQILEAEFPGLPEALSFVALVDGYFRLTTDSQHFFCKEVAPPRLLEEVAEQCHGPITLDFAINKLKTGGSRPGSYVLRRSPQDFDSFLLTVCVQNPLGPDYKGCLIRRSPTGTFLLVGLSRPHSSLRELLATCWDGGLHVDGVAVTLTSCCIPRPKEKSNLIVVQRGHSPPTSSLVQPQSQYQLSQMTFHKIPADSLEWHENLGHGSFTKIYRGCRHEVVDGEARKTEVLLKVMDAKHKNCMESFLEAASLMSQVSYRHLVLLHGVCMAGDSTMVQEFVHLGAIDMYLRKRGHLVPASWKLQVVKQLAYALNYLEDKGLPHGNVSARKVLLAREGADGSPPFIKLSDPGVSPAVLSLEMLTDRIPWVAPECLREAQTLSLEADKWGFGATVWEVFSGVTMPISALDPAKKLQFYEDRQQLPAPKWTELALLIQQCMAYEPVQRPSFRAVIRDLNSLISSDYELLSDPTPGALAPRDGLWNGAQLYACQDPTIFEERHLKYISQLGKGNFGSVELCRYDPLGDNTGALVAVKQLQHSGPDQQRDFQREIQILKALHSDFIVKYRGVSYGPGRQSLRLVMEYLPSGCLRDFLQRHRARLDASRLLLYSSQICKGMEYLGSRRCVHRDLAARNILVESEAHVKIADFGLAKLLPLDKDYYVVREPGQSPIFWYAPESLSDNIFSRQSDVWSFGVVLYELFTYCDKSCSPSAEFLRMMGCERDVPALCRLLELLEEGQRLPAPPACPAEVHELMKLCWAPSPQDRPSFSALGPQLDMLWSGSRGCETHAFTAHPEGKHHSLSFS

[13] = biological target: Serine/threonine-protein kinase PAK 1 (Homo sapiens, UniProt Q13153)
[14] = biological target: Megakaryocyte-associated tyrosine-protein kinase (Homo sapiens, UniProt P42679);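 further: affinity measured as one member of a kinase panel (Navigating the Kinome) against MATK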
[15] = biological target: Proto-oncogene tyrosine-protein kinase ROS (Homo sapiens, UniProt P08922);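 further: ROS1 tested as one member of a kinome-wide kinase panel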
[16] = biological target: Dual specificity tyrosine-phosphorylation-regulated kinase 4 (Homo sapiens, UniProt Q9NR20)
[17] = biological target: Focal adhesion kinase 1 (Homo sapiens, UniProt Q05397);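 further: measured as one member of a kinome panel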
[18] = biological target: Proto-oncogene tyrosine-protein kinase receptor Ret (Homo sapiens, UniProt P07949);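 further: measured within a kinome-wide profiling panel, RET as the panel member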
[19] = biological target: Protein kinase C theta type (Homo sapiens, UniProt Q04759); test: Navigating the Kinome. Panel member name: PRKCQ
[20] = biological target: Leucine-rich repeat serine/threonine-protein kinase 2 (Homo sapiens, UniProt Q5S007);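 further: value from a broad kinome-wide panel profiling study in which LRRK2 was one of the kinases tested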
[21] = biological target: Dual specificity mitogen-activated protein kinase kinase 1 (Homo sapiens, UniProt Q02750); test: Navigating the Kinome. Panel member name: MAP2K1
[22] = biological target: Dual specificity tyrosine-phosphorylation-regulated kinase 1B (Homo sapiens, UniProt Q9Y463); test: Navigating the Kinome. Panel member name: DYRK1B
[23] = biological target: Cyclin-dependent kinase 9 (Homo sapiens, UniProt P50750);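 further: value from the CDK9 entry of a kinome-spanning kinase panel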
[24] = biological target: Rho-associated protein kinase 1 (Homo sapiens, UniProt Q13464);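 further: measured within a broad kinome-wide panel profiling many kinases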
[25] = biological target: Aurora kinase A (Homo sapiens, UniProt O14965);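 further: value from the Navigating the Kinome kinase panel profiling, panel entry STK6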
[26] = biological target: Dual specificity mitogen-activated protein kinase kinase 2 (Homo sapiens, UniProt P36507); test: Navigating the Kinome. Panel member name: MAP2K2

Tyrosine-protein kinase Fyn, sequence (P06241 whole entry): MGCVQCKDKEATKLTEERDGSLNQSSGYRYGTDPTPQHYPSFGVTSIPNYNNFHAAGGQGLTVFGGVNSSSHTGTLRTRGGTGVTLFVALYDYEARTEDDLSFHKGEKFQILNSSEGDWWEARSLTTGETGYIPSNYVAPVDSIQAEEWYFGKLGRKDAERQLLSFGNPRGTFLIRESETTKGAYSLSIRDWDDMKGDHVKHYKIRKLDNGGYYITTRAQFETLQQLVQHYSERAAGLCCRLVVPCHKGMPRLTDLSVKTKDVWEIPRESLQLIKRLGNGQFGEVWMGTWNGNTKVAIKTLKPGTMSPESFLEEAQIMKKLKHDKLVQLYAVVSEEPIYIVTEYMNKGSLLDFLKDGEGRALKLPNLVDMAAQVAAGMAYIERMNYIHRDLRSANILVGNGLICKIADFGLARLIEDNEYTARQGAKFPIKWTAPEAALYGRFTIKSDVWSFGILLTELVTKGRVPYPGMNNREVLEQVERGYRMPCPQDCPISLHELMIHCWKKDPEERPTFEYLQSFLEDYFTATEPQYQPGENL
Dual specificity tyrosine-phosphorylation-regulated kinase 1B, sequence (Q9Y463 whole entry): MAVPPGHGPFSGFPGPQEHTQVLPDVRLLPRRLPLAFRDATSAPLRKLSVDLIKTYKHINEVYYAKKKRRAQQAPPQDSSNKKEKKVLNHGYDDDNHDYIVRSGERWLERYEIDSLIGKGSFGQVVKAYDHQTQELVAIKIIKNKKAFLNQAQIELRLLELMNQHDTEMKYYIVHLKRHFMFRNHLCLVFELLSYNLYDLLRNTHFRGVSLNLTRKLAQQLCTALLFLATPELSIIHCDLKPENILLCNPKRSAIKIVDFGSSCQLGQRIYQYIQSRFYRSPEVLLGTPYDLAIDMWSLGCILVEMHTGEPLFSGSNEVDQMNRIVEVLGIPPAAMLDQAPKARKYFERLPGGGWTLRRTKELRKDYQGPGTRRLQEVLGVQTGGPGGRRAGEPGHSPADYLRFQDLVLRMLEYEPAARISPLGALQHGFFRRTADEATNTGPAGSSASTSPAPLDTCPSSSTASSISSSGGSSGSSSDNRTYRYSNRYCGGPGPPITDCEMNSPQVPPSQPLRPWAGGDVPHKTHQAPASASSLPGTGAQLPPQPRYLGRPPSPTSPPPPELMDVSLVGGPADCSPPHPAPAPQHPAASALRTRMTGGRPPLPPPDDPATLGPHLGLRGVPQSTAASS
Calcium/calmodulin-dependent protein kinase type 1, sequence (Q14012 whole entry): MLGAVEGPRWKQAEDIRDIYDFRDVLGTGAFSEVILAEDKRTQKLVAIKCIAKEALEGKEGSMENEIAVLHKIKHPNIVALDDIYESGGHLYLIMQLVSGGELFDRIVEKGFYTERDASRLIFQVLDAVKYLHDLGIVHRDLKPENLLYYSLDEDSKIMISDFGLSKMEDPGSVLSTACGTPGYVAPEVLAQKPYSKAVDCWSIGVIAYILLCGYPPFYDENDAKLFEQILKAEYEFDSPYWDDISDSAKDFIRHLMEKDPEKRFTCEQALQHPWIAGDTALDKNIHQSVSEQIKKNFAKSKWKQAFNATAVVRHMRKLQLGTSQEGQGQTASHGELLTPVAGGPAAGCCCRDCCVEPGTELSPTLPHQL
Aurora kinase A, sequence (O14965 whole entry): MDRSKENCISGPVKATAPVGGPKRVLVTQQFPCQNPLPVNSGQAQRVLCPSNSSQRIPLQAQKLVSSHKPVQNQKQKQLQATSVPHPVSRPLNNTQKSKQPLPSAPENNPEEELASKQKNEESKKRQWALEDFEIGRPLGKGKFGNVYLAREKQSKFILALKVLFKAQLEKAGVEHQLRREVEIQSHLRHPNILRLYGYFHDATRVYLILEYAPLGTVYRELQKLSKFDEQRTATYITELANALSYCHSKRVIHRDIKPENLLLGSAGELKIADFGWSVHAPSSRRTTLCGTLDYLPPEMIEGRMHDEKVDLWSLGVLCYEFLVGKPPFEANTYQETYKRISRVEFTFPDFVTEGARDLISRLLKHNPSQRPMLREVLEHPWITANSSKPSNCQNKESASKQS
Serine/threonine-protein kinase PAK 1, sequence (Q13153 whole entry): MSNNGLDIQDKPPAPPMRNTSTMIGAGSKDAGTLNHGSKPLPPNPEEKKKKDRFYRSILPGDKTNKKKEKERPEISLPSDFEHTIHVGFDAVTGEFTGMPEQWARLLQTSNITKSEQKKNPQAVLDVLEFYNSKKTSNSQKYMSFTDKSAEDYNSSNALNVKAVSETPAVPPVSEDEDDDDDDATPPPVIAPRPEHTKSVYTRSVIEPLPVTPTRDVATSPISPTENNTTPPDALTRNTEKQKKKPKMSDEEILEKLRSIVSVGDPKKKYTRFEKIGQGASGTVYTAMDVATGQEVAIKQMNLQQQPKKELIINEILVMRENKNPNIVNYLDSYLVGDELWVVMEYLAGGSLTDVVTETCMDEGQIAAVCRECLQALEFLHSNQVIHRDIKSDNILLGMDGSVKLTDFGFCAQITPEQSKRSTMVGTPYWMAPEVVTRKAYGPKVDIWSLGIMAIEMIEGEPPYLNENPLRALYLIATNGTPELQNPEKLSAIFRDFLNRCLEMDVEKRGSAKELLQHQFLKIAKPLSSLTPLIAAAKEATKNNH
Megakaryocyte-associated tyrosine-protein kinase, sequence (P42679 whole entry): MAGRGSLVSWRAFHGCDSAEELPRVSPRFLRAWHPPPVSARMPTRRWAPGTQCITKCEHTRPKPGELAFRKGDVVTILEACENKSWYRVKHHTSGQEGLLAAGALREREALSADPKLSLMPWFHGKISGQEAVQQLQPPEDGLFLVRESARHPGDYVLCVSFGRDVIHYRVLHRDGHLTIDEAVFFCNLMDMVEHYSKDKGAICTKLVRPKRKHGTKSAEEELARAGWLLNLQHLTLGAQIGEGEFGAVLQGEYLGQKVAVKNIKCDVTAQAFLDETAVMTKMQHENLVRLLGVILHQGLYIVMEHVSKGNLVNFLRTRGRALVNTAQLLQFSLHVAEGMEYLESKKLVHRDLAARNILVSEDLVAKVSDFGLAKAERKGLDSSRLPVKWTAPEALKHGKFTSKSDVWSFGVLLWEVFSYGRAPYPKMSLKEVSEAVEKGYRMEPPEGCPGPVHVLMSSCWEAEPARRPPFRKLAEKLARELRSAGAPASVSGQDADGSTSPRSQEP
Receptor tyrosine-protein kinase erbB-2, sequence (P04626 whole entry): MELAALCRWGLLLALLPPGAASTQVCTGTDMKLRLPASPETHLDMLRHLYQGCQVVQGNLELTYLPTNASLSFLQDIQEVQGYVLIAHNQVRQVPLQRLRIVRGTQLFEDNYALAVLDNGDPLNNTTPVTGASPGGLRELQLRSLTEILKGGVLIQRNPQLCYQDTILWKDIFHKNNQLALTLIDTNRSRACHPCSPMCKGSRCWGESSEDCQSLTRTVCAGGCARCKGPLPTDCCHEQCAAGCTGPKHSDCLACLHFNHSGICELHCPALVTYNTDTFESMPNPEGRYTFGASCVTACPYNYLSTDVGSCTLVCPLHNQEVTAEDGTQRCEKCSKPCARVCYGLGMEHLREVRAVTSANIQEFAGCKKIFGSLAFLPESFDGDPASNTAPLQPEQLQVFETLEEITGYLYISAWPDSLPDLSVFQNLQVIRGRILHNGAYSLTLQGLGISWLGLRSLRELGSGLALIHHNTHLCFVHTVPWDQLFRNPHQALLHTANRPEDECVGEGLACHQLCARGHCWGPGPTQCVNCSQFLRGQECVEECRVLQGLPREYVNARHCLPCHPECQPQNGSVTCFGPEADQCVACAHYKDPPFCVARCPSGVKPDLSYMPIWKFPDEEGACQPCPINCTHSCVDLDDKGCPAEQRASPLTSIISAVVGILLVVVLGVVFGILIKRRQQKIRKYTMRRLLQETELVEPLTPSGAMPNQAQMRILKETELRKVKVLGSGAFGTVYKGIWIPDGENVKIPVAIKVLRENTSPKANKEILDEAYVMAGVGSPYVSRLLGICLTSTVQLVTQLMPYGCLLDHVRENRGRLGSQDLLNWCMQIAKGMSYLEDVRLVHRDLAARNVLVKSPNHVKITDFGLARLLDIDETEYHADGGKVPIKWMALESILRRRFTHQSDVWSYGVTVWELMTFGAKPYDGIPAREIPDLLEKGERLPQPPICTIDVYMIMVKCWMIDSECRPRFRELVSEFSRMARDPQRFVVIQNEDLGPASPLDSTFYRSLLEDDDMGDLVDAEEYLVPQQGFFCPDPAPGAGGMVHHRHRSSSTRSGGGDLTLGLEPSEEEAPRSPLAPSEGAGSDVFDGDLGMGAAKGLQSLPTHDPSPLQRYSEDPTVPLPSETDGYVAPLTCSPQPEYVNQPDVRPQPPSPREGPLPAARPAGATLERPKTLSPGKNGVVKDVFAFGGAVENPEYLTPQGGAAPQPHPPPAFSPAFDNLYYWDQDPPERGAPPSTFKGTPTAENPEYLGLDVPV
Fibroblast growth factor receptor 3, sequence (P22607 whole entry): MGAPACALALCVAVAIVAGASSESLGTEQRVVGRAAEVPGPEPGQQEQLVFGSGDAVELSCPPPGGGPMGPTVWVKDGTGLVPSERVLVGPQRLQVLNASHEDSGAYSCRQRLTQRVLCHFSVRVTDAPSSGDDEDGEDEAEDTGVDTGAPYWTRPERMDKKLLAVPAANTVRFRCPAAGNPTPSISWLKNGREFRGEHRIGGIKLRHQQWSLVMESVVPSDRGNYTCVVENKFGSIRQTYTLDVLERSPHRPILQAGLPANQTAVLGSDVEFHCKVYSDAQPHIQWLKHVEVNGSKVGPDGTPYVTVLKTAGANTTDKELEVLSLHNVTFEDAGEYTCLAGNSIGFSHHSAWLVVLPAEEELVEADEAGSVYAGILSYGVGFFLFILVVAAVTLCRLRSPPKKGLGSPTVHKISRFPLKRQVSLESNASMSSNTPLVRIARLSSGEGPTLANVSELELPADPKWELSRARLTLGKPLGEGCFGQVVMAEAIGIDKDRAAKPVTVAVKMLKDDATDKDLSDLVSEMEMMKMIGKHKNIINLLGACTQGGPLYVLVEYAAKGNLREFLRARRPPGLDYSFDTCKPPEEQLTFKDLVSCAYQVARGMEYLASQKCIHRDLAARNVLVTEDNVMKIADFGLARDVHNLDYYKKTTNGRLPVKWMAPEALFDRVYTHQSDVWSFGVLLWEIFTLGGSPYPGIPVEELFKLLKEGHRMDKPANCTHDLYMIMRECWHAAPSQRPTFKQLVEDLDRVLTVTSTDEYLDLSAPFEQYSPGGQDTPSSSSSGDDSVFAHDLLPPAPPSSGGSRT

Ki [2]	Ki [9]	Ki [11]	Ki [12]	Ki [17]	Ki [18]	Ki [19]	Ki [20]	Compound	Ki [1]	Ki [3]	Ki [4]	Ki [5]	Ki [6]	Ki [7]	Ki [8]	Ki [10]	Ki [13]	Ki [14]	Ki [15]	Ki [16]	further results
0.126 µM (active)	> 0.794 µM (inactive)	0.0501 µM (active)	0.398 µM (active)					NC1CCC(Nc2nccc(-c3c[nH]c4ncccc34)n2)CC1 (configuration not stated)	> 1.26 µM (inactive)	> 7.94 µM (inactive)	0.794 µM (active)	> 1.58 µM (inactive)	> 1.58 µM (inactive)	1 µM (active)	> 2 µM (inactive)	1 µM (active)	7.94 µM (active)	> 2 µM (inactive)	> 2 µM (inactive)	1.58 µM (active)	
79.4 µM (active)			100 µM (active)	63.1 µM (active)	50.1 µM (active)	12.6 µM (active)	3.98 µM (active)	OCc1cc(-c2ccc3[nH]ncc3c2)on1													Ki [21]: 10 µM (active); Ki [22]: 0.1 µM (active); Ki [23]: 5.01 µM (active); Ki [24]: 0.398 µM (active); Ki [25]: 15.8 µM (active); Ki [26]: 15.8 µM (active)
								COC(C(=O)N1Cc2[nH]nc(NC(=O)c3ccc(N4CCN(C)CC4)cc3)c2C1)c1ccccc1 (configuration not stated)	> 2.51 µM (inactive)	> 7.94 µM (inactive)	> 1.58 µM (inactive)	0.0501 µM (active)	> 1.58 µM (inactive)	> 7.94 µM (inactive)	0.0316 µM (active)	0.0398 µM (active)	> 10 µM (inactive)	> 2 µM (inactive)	0.00794 µM (active)	> 7.94 µM (inactive)	
	100 µM (active)	10 µM (active)		50.1 µM (active)	25.1 µM (active)	39.8 µM (active)	12.6 µM (active)	CC(C)(O)c1cn(-c2ccc3[nH]ncc3c2)nn1													Ki [21]: 20 µM (active); Ki [22]: 2 µM (active); Ki [23]: 10 µM (active); Ki [24]: 0.794 µM (active); Ki [25]: 25.1 µM (active); Ki [26]: 25.1 µM (active)
